Test results published in patent US8741932B2, “Imidazopyridine derivatives” (Piramal Enterprises Limited, priority 2009, dated 2014).
pIC50: −log10 of the molar value. Read-outs that look alike come from different tables or passages of the source.

Experiments:
mTOR = biological target: T1, mTOR (Homo sapiens, UniProt P42345); test: mTOR activity assay (cell ELISA, Phospho-AKT Ser 473, A2780 cells); format: cell-based
T1 construct: endogenous in cells; host or cells: A2780 ovarian cell line (ATCC)
Method: Seed cells (Ovarian cell line A2780, ATCC) were plated in a 96 well microtitre plate at a density of 50,000 cells/cm^2 in appropriate complete cell culture medium. The cells were allowed to adhere for 18-24 hours. The cells were allowed to starve for 24 hours. […] Then the cells were stimulated with 20% FCS for 30 minutes. A typical assay would consist of a set of unstimulated cells, a set of stimulated cells and a set of cells treated with compounds of present invention and a set of cells treated with the stimulator. The medium was discarded. The cells were fixed with 100 μL of 3.7% formaldehyde for 15 minutes. The formaldehyde was discarded by inverting the plate and tapping it on a thick tissue paper layer to remove traces. The cells were washed and permeabilized with 200 μL PBS+Triton-X 100 solution (hereafter referred to as PBS-Triton, containing 0.1% triton-X 100 in 1×PBS) three times, incubating the cells each time for 5 minutes. 100 μL blocking solution (10% FCS in PBS-Triton) was added and incubated for 1 hour at 25° C. The blocking solution was discarded and cells were incubated with the primary antibody in PBS-Triton at a dilution of 1:500 for 1 hour at RT (25° C.). [The primary antibody is Phospho-AKT (Ser 473); Cell Signaling; Cat. No. 9271]. The primary antibody solution was discarded and the cells were washed 3 times with PBS-Triton solution and incubated with the HRP-conjugated secondary antibody in PBS-Triton at a dilution of 1:500 for 1 hour at RT (25° C.). The cells were washed 3 times with PBS-Triton followed by two washes with PBS (to remove traces of triton-X 100). The OPD (o-phenylene diamine dihydrochloride) substrate was prepared for detection of the signal by dissolving one tablet set (two tablets) of SigmaFast OPD (Sigma, Cat No. P9187) in 20 mL distilled water. It should be protected from light. 100 μL OPD solutions was added to the wells and the plate was incubated in the dark for 3-5 minutes (depending upon the development of the color). The reaction was stopped by adding 50 μL 2 N H2SO4. The absorbance was measured at 490 nm. The values were expressed in the treated samples, in terms of percentage or fold decrease in AKT phosphorylation with respect to the induced sample. PI-103 (Calbiochem, USA) was used as a standard.

STAT3 = STAT3 bioassay (Hela Stat3-luc, luciferase); format: cell-based; conditions: Oncostatin M induction
Method: Cells were seeded (Hela Stat3-luc, ATCC P/N 30-2002) in a white 96 well plate (Nunc cat.no.136101) at a density of 20,000cells/well in 179 μl volume per well (DMEM from Sigma containing 10% FCS). The plate was incubated for 24 hours at 37° C./5% CO2. The cells (wells in triplicates) were then treated with 1 μl/well of 200× stock of the desired compound concentration prepared in 100% DMSO. Curcumin was used as a standard or positive control, added 10 μg/ml in triplicate. DMSO was used as medium control (1 μl/well added in triplicates). The plate was incubated at 37° C./5% CO2 for 1 hour. 20 μl/well Oncostatin M (Oncostatin M, Human, Recombinant, E. coli, Cat.No. 496260, 10 μg from Calbiochem) was added to treated wells, induction control (in triplicate) (1000 ng/ml stock prepared in serum free medium to get final concentration 100 ng/ml). The plate was then incubated for 7-8 hours at 37° C./5% CO2 for induction. A typical assay would consist of triplicate of medium control, triplicate of induction control, triplicate of positive/standard control and test compounds at desired concentration in triplicates. For termination Luciferase assay protocol was followed where the culture medium was removed from all the wells.
200 μl well of PBS was added to remove traces of medium and compound. The PBS was discarded. 40 μl/well of 1× lysis buffer was added to all the wells. The plate was incubated at RT for 20 minutes with intermittent shaking. 100 μl/well of LAB reagent was added to all the wells in dark. {LAB reagent for 1 plate=8 ml Luciferase assay buffer (LAB)+1 ml Coenzyme A (Sigma cat no. C3019) (2.1 mg/ml stock in LAB)+530 μL of ATP (Sigma cat.no.A2383) (5.85 mg/ml stock in LAB)+1 ml luciferin reagent (Promega cat no.245355) (2 mg/ml stock in LAB, protect from light)}.
The luminescence was immediately read on polar star. The values were expressed as percentage inhibition, in terms of treated values to that STAT3 (induction control). IC50 values were calculated from graphs using these percentages.

PI3Kα kinase = biological target: T2, PI3Kα kinase (Homo sapiens, UniProt P42336); test: Kinase assay (PI3Kα); format: biochemical; conditions: for IC50: read-out: IC50 (μM) for PI3K inhibition
T2 construct: purchased Millipore, USA
T2 sequence (P42336 whole entry): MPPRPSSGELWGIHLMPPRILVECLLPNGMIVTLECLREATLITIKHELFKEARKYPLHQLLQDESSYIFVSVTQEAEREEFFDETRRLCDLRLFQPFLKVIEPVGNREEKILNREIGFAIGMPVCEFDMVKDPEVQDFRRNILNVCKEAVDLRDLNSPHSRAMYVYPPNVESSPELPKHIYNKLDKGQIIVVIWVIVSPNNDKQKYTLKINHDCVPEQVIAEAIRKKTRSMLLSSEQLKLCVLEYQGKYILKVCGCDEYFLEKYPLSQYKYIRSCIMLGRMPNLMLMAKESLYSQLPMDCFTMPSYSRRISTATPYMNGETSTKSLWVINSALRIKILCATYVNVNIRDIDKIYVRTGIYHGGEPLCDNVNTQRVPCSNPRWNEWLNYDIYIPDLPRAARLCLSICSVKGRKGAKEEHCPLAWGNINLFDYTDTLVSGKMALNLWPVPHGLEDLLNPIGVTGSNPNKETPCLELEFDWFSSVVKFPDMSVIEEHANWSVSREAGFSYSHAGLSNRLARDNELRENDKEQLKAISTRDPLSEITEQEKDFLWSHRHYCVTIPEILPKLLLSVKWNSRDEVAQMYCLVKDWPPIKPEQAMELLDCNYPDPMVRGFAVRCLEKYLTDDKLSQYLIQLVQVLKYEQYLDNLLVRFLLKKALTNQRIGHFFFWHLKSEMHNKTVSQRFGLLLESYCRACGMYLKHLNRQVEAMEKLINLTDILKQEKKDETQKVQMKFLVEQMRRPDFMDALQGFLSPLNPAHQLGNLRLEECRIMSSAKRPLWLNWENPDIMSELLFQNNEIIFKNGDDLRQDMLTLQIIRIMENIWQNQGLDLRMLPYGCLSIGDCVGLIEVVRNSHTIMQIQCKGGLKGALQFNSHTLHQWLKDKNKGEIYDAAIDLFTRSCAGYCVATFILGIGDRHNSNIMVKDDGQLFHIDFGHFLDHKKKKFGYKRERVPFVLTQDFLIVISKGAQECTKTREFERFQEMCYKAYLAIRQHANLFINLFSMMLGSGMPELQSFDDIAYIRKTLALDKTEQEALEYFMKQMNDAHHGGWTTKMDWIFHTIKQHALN
T2 sequence (P27986 whole entry partner): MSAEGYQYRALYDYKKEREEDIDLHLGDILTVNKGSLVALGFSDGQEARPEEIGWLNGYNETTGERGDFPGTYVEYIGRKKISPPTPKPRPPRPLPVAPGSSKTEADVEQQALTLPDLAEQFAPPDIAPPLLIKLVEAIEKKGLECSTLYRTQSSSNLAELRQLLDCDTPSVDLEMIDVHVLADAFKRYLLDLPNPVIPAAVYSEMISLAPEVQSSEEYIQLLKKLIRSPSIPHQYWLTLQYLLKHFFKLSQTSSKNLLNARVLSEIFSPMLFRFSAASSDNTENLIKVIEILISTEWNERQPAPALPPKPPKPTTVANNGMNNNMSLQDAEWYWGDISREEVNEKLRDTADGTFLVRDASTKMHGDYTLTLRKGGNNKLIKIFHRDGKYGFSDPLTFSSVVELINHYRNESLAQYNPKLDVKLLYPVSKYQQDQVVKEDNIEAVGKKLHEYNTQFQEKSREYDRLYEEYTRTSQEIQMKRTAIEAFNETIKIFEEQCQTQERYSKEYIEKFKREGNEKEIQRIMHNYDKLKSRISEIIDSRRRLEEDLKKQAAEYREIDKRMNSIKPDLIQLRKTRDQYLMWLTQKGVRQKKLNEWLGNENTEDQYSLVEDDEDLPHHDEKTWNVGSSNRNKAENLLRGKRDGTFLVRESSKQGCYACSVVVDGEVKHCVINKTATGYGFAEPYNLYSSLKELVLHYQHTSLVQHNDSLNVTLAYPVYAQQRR
Method: The kinase reaction was carried out in a 25 μL volume in a 1.5 mL microcentrifuge tube. The reaction mixture consisted of kinase buffer (10 mM Hepes, pH 7.5, 50 mM MgCl2), 20 ng PI3Kα kinase (Millipore, USA), 12.5 μg phosphotidylinositol (PI), 10 μM ATP and 1 μCi ^32γ P […]. […] The reactions were incubated at 30° C. for 20 minutes and were terminated by adding 1:1 mixture of MeOH and CHCl3. The tube contents were mixed on a vortex mixer and centrifuged at 10000 rpm for 2 minutes. 10 μL of the organic (lower) phase was spotted on to a TLC plate (silica, mobile phase: n-propanol and 2 M glacial acetic acid in 65:35 ratio). The plates were dried and exposed to an X-ray film. The bands appearing as a result of ^32γ P incorporation in PI were quantitated using the Quantityl)ne (BioRad, USA) densitometry program. PI-103 (Calbiochem, USA) was used as a standard.

IL-6 = test: Human monocyte assay, LPS-stimulated IL-6; format: cell-based; conditions: human monocytes, 1 μg/ml LPS, 5 hours
In short: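 Adherent human PBMC-derived monocytes (2×10^4/well) were cultured 48 h, preincubated 30 min with compound or 0.5% DMSO, then stimulated with 1 μg/ml E. coli LPS for 5 h at 37° C. TNF-α and IL-6 in supernatants were measured by ELISA.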

H460 = test: Cytotoxicity assay (propidium iodide), H460; format: cell-based; conditions: Homo sapiens, NCI-H460; H460 (C1b, lung); 48 hours
A549 = test: Cytotoxicity assay (propidium iodide), A549; format: cell-based; conditions: Homo sapiens; A549 (C1a, lung); 48 hours
A2780 = test: Cytotoxicity assay (propidium iodide), A2780; format: cell-based; conditions: Homo sapiens; A2780 (C3a, ovarian); 48 hours
TNF-α = test: Human monocyte assay, LPS-stimulated TNF-α; format: cell-based; conditions: human monocytes, 1 μg/ml LPS, 5 hours
Method: The assay was designed as in the reference, Physiol.
Peripheral blood mononuclear cells (hPBMC) were harvested from human blood and suspended in RPMI 1640 culture medium containing 10% FCS, 100 U/mL penicillin and […] streptomycin (assay medium). Monocytes in the hPBMCs were counted using a Coulter Counter following which the cells were resuspended at 2×10^5 monocytes/mL. A cell suspension containing 2×10^4 monocytes was aliquoted per well of a 96-well plate. Subsequently, the hPBMCs were incubated for 4-5 hours at 37° C., 5% CO2 (During the incubation, the monocytes adhered to the bottom of 96-well plastic culture plate). Following the incubation, the non-adherent lymphocytes were washed with assay medium and the adherent monocytes re-fed with assay medium. After a 48-hour incubation period (37° C., 5% CO2), monocytes were pretreated with various concentrations of representative compounds of present invention (refer to table 6 and 7) (prepared in DMSO) or vehicle (0.5% DMSO) for 30 minutes and stimulated with 1 μg/ml LPS (Escherchia coli 0111:B4, Sigma Chemical Co., St. Louis, Mo.). The incubation was continued for 5 hours at 37° C., 5% CO2. Supernatants were harvested, assayed for IL-6 and TNF-α by ELISA as described by the manufacturer (BD Biosciences, USA). Dexamethasone (10 μM) was used as standard for this assay. […] Biological results for both IL-6 and TNFα are indicated in Table 6 and Table 7 respectively.

[1] = read-out: % Inhibition of mTOR activity at 1 μM

Compound	inhibition at 1 µM (mTOR; [1])	pIC50 (STAT3; Homo sapiens)	IC50 (PI3Kα kinase)	IC50 (IL-6; Monocyte)	other results
CN(N=Cc1cnc2ccc(-c3cccnc3)cn12)S(=O)(=O)c1ccc(Br)cc1 [Example 8, 4-Bromo-N-methyl-N′-((6-(pyridine-3-yl)imidazo[1,2-a]pyridine-3-yl)methylene)benzenesulfonohydrazide]	30 to 50%	5.30 to 7.00			
CN(N=Cc1cnc2ccc(-c3cccnc3)cn12)S(=O)(=O)c1ccc(F)c(F)c1 [Example 15, 3,4-difluoro-N-methyl-N′-((6-(pyridine-3-yl)imidazo[1,2-a]pyridine-3-yl)methylene) benzenesulfonohydrazide]	30 to 50%	5.30 to 7.00	0.5 to 1 µM		
CN(N=Cc1cnc2ccc(-c3cccnc3)cn12)S(=O)(=O)c1cccc(Cl)c1F [Example 17, 3-Chloro-2-fluoro-N-methyl-N′-((6-(pyridine-3-yl)imidazo[1,2-a]pyridine-3-yl)methylene) benzenesulfonohydrazide]	30 to 50%		0.01 to 0.5 µM	0.001 to 5 µM	
Cc1cc(S(=O)(=O)N(C)N=Cc2cnc3ccc(-c4cccnc4)cn23)ccc1Br [Example 22, 4-Bromo-N, 3-dimethyl-N′-((6-(pyridine-3-yl)imidazo[1,2-a]pyridine-3-yl)methylene) benzenesulfonohydrazide]		5.30 to 7.00	0.01 to 0.5 µM	≥ 5 µM	
CN(N=Cc1cnc2ccc(-c3cccnc3)cn12)S(=O)(=O)c1cc(C(F)(F)F)cc(C(F)(F)F)c1 [Example 23, N-methyl-N′-((6-(pyridine-3-yl)imidazo[1,2-a]pyridine-3-yl)methylene)-3,5-bis(trifluoromethyl)benzenesulfonohydrazide]	30 to 50%		0.01 to 0.5 µM	0.001 to 5 µM	pIC50 (H460): 5.30 to 8.00; pIC50 (A549): 5.30 to 8.00; pIC50 (A2780): 5.30 to 8.00
COc1ccc(F)cc1S(=O)(=O)N(C)/N=C/c1cnc2ccc(-c3cccnc3)cn12 [Example 45, (E)-5-fluoro-2-methoxy-N-methyl-N′-((6-(pyridin-3-yl)imidazo[1,2-a]pyridin-3-yl)methylene)benzenesulfonohydrazide]				0.001 to 5 µM	pIC50 (H460): 5.30 to 8.00; pIC50 (A549): 5.30 to 8.00; pIC50 (TNF-α): 6.00 to 9.00
CCN(/N=C/c1cnc2ccc(-c3cccnc3)cn12)S(=O)(=O)c1cc([N+](=O)[O-])ccc1C [Example 84]	30 to 50%		0.01 to 0.5 µM	0.001 to 5 µM	
Cc1ccc(F)cc1S(=O)(=O)N(C)/N=C/c1cnc2c(C)cc(-c3cccnc3)cn12 [Example 100, (E)-5-Fluoro-N,2-dimethyl-N′-((8-methyl-6-(pyridin-3-yl)imidazo[1,2-a]pyridin-3-yl)methylene)benzenesulfonohydrazide]			0.01 to 0.5 µM		pIC50 (H460): 5.30 to 8.00; pIC50 (A549): 5.30 to 8.00; pIC50 (A2780): 5.30 to 8.00
Cc1cc(-c2cccnc2)cn2c(/C=N/N(C)S(=O)(=O)c3ccc(F)c(C#N)c3)cnc12 [Example 105, (E)-3-cyano-4-fluoro-N-methyl-N′-((8-methyl-6-(pyridin-3-yl)imidazo[1,2-a]pyridin-3-yl)methylene)benzenesulfonohydrazide]				0.001 to 5 µM	pIC50 (TNF-α): 6.00 to 9.00
Cc1ccc(F)cc1S(=O)(=O)N(C)/N=C/c1cnc2ccc(-c3cc4ccccc4[nH]3)cn12 [Example 115, (E)-N′-((6-(1H-indol-2-yl)imidazo[1,2-a]pyridin-3-yl)methylene)-5-fluoro-N,2-dimethylbenzenesulfonohydrazide]		5.00 to 5.30	0.01 to 0.5 µM	≥ 5 µM	pIC50 (mTOR): 5.00 to 5.30
Oc1cccc(-c2nc(N3CCOCC3)c3oc4ncccc4c3n2)c1 [PI-103, reference compound]					inhibition at 1 µM (mTOR; read-out: % Inhibition of mTOR activity at 1 μM (number, standard)): 50%; inhibition at 0.1 µM (PI3Kα kinase; at 100 nM): 80%
N-methyl-1-phenyl-N′-((6-pyridin-3-yl) imidazo[1,2-a]pyridine-3-yl) methylene)benzenesulfonohydrazide [Example 28]					IC50 (IL-6): 0.001 to 5 µM; pIC50 (STAT3): < 5.00
